The target of one experiment is T1, HDAC6 human recombinant (Homo sapiens, UniProt Q9UBN7).
T1 construct: purchased Calbiochem 382180
T1 sequence (Q9UBN7 1-1215): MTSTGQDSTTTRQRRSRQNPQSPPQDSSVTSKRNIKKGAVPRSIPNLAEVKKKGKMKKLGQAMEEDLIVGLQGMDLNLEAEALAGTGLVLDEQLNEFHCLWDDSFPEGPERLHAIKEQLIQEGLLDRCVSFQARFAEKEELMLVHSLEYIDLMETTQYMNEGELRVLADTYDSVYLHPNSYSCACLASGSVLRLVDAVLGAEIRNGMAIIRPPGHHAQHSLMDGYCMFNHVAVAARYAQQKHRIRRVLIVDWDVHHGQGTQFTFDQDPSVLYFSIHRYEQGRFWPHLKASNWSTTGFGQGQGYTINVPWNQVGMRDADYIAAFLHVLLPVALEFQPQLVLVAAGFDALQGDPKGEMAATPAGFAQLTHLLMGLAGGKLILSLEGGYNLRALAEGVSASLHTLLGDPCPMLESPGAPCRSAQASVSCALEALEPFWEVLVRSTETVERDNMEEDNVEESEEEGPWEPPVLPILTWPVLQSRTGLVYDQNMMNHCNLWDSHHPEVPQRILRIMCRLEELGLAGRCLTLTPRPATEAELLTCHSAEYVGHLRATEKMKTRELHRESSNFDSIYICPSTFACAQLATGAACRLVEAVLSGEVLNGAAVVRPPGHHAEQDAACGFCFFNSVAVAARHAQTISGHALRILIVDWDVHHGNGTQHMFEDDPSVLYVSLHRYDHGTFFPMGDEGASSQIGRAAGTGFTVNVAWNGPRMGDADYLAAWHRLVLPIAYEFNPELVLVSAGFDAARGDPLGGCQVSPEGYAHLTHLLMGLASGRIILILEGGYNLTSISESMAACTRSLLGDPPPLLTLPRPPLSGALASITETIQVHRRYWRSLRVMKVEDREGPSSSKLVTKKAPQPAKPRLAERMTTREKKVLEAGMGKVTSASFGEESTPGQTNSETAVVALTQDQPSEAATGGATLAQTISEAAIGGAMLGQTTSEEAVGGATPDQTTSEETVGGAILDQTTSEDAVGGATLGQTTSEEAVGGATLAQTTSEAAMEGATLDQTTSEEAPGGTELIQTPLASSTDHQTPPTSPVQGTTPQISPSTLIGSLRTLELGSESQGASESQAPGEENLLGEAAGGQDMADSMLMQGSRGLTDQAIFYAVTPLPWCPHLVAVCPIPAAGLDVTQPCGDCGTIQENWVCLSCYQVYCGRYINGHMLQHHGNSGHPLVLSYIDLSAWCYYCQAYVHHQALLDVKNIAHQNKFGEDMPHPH
Put plainly: HDAC enzyme activity inhibition (in vitro), HDAC6 assay. In kind it is biochemical. The following applies: samples at 0.1, 1, 10, 100 and 1000 nM; 37° C. 60 minutes; fluorescence Ex 390, Em 460; read-out: HDAC6 IC50. The protocol:
A HDAC enzyme inhibitory capacity of a test material was measured by using HDAC1 Fluorimetric Drug Discovery Assay Kit (Enzolifesciences: BML-AK511) and HDAC6 human recombinant (Calbiochem: 382180). For a HDAC1 assay, samples were treated at a concentration of 100, 1000 and 10000 nM. […] After the above sample treatment, a reaction was continued at 37° C. for 60 minutes, then treated with a developer, and then subjected to a reaction at 37° C. for 30 minutes, after which fluorescence intensity (Ex 390, Em 460) was measured by using FlexStatin3 (Molecular device).

A further experiment addresses T2, HDAC1 (Homo sapiens, UniProt Q13547).
T2 construct: purchased Enzolifesciences BML-AK511
Put plainly: HDAC enzyme activity inhibition (in vitro), HDAC1 Fluorimetric Drug Discovery Assay Kit. In kind it is biochemical. Particulars: samples at 100, 1000 and 10000 nM; 37° C. 60 minutes; fluorescence Ex 390, Em 460; read-out: HDAC1 IC50. Here is the method:
<Experimental Example 1> Identification of HDAC Enzyme Activity Inhibition (In Vitro)
A selective HDAC6 inhibitor is important for selectivity of HDAC1 inhibition, which is a cause of side effects, and thus HDAC1/6 enzyme selectivity and cell selectivity (HDAC1: histone acetylation/HDAC6: tubulin acetylation) were identified.
A HDAC enzyme inhibitory capacity of a test material was measured by using HDAC1 Fluorimetric Drug Discovery Assay Kit (Enzolifesciences: BML-AK511) and HDAC6 human recombinant (Calbiochem: 382180). For a HDAC1 assay, samples were treated at a concentration of 100, 1000 and 10000 nM. For a HDAC6 assay, samples were treated at a concentration of 0.1, 1, 10, 100 and 1000 nM. After the above sample treatment, a reaction was continued at 37° C. for 60 minutes, then treated with a developer, and then subjected to a reaction at 37° C. for 30 minutes, after which fluorescence intensity (Ex 390, Em 460) was measured by using FlexStatin3 (Molecular device).

T2 sequence (Q13547 whole entry): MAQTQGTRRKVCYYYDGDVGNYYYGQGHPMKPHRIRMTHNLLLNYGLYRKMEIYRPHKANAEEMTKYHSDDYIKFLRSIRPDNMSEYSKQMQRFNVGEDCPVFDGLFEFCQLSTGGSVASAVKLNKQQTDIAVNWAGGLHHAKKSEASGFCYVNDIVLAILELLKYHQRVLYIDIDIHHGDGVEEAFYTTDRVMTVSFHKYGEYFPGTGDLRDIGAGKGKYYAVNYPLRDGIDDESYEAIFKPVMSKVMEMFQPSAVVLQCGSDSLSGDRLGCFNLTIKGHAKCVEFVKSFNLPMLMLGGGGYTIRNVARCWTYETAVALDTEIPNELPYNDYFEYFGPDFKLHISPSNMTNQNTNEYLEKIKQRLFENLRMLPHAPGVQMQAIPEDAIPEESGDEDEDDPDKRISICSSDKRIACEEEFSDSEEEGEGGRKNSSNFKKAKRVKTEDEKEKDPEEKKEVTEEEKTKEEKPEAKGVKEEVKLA

For orientation: IC50 means the concentration at which inhibition is half-maximal. With `CN1CCC(n2c(=O)n(Cc3ccc(-c4nnc(C(F)F)o4)cc3F)c3ccccc32)CC1` [Compound 1, 1-(4-(5-(difluoromethyl)-1,3,4-oxadiazole-2-yl)-2-fluorobenzyl)-3-(1-methylpiperidine-4-yl)-1,3-dihydro-2H-benzo[d]imidazole-2-one], the IC50 is 236 nM on HDAC6 human recombinant and more than 10000 nM at HDAC1.
For `O=c1n(CCN2CCOCC2)c2ccccc2n1Cc1ccc(-c2nnc(C(F)F)o2)cc1F` [Compound 2, 1-(4-(5-(difluoromethyl)-1,3,4-oxadiazole-2-yl)-2-fluorobenzyl)-3-(2-morpholinoethyl)-1,3-dihydro-2H-benzo[d]imidazole-2-one], the values for the IC50 on HDAC6 human recombinant and at HDAC1 were 203 nM and more than 10000 nM, respectively.
The like results for `CN(C)CCn1c(=O)n(Cc2ccc(-c3nnc(C(F)F)o3)cn2)c2ccccc21` [Compound 3, 1-((5-(5-(difluoromethyl)-1,3,4-oxadiazole-2-yl)pyridine-2-yl)methyl)-3-(2-(dimethylamino)ethyl)-1,3-dihydro-2H-benzo[d]imidazole-2-one] were, in that order, 115 nM and more than 10000 nM.
The like results for `CN1CCC(n2c(=O)n(Cc3ccc(-c4nnc(C(F)F)o4)cn3)c3ccccc32)CC1` [Compound 4, 1-((5-(5-(difluoromethyl)-1,3,4-oxadiazole-2-yl)pyridine-2-yl)methyl)-3-(1-methylpiperidine-4-yl)-1,3-dihydro-2H-benzo[d]imidazole-2-one] were, in that order, 178 nM and more than 10000 nM.
The like results for `CN1CCC(n2c(=O)n(Cc3ccc(-c4nnc(C(F)F)o4)cc3)c3ccccc32)CC1` [Compound 5, 1-(4-(5-(difluoromethyl)-1,3,4-oxadiazole-2-yl)benzyl)-3-(1-methylpiperidine-4-yl)-1,3-dihydro-2H-benzo[d]imidazole-2-one] were, in that order, 340 nM and more than 10000 nM.
`CN1CCC(n2c(=O)n(Cc3ccc(-c4nnc(C(F)F)o4)cn3)c3ccccc32)C1` (centres unmarked) [Compound 6, 1-((5-(5-(difluoromethyl)-1,3,4-oxadiazole-2-yl)pyridine-2-yl)methyl)-3-(1-methylpyrrolidine-3-yl)-1,3-dihydro-2H-benzo[d]imidazole-2-one]: the IC50 at HDAC6 human recombinant was 203 nM; on HDAC1, more than 10000 nM.
With `CN1CC(n2c(=O)n(Cc3ccc(-c4nnc(C(F)F)o4)cn3)c3ccccc32)C1` [Compound 7, 1-((5-(5-(difluoromethyl)-1,3,4-oxadiazole-2-yl)pyridine-2-yl)methyl)-3-(1-methylazetidine-3-yl)-1,3-dihydro-2H-benzo[d]imidazole-2-one], the IC50 on HDAC6 human recombinant was 264 nM; on HDAC1 it was more than 10000 nM.
Take `CN1CCC(N2Cc3ccccc3N(Cc3ccc(-c4nnc(C(F)F)o4)cn3)C2=O)CC1` [Compound 8, 1-((5-(5-(difluoromethyl)-1,3,4-oxadiazole-2-yl)pyridine-2-yl)methyl)-3-(1-methylpiperidine-4-yl)-3,4-dihydroquinazoline-2(1H)-one]: the concentration for half-maximal inhibition (IC50) on HDAC6 human recombinant is 171 nM; at HDAC1 it was more than 10000 nM.
For `CN1CC(N2Cc3ccccc3N(Cc3ccc(-c4nnc(C(F)F)o4)cn3)C2=O)C1` [Compound 9, 1-((5-(5-(difluoromethyl)-1,3,4-oxadiazole-2-yl)pyridine-2-yl)methyl)-3-(1-methylazetidine-3-yl)-3,4-dihydroquinazoline-2(1H)-one] the same measures were 332 nM and more than 10000 nM.
For `CN1CCC(Cn2c(=O)n(Cc3ccc(-c4nnc(C(F)F)o4)cn3)c3ccccc32)CC1` [Compound 10, 1-((5-(5-(difluoromethyl)-1,3,4-oxadiazole-2-yl)pyridine-2-yl)methyl)-3-((1-methylpiperidine-4-yl)methyl)-1,3-dihydro-2H-benzo[d]imidazole-2-one] the same measures were 222 nM and more than 10000 nM.
For `O=c1n(Cc2ccc(-c3nnc(C(F)F)o3)cn2)c2ccccc2n1C1COC1` [Compound 11, 1-((5-(5-(difluoromethyl)-1,3,4-oxadiazole-2-yl)pyridine-2-yl)methyl)-3-(oxetan-3-yl)-1,3-dihydro-2H-benzo[d]imidazole-2-one] the same measures were 241 nM and more than 10000 nM.
Regarding `O=c1n(Cc2ccc(-c3nnc(C(F)F)o3)cn2)c2ccccc2n1C1CCOCC1` [Compound 12, 1-((5-(5-(difluoromethyl)-1,3,4-oxadiazole-2-yl)pyridine-2-yl)methyl)-3-(tetrahydro-2H-pyran-4-yl)-1,3-dihydro-2H-benzo[d]imidazole-2-one], the IC50 at HDAC6 human recombinant is 160 nM; on HDAC1 it was more than 10000 nM.
For `O=c1n(Cc2ccc(-c3nnc(C(F)F)o3)cn2)c2ccccc2n1C1CCS(=O)(=O)CC1` [Compound 13, 1-((5-(5-(difluoromethyl)-1,3,4-oxadiazole-2-yl)pyridine-2-yl)methyl)-3-(1,1-dioxydotetrahydro-2H-thiopyran-4-yl)-1,3-dihydro-2H-benzo[d]imidazole-2-one], the half-inhibitory concentration (IC50) at HDAC6 human recombinant was 161 nM; at HDAC1 it was more than 10000 nM.
As to `CCN1CCC(n2c(=O)n(Cc3ccc(-c4nnc(C(F)F)o4)cc3F)c3ccccc32)CC1` [Compound 14, 1-(4-(5-(difluoromethyl)-1,3,4-oxadiazole-2-yl)-2-fluorobenzyl)-3-(1-ethylpiperidine-4-yl)-1,3-dihydro-2H-benzo[d]imidazole-2-one], the IC50 on HDAC6 human recombinant was 209 nM; at HDAC1, more than 10000 nM.
For `O=c1n(Cc2ccc(-c3nnc(C(F)F)o3)cn2)c2cc(F)ccc2n1C1CCN(C2CCC2)CC1` [Compound 52, 1-(1-cyclobutylpiperidine-4-yl)-3-((5-(5-(difluoromethyl)-1,3,4-oxadiazole-2-yl)pyridine-2-yl)methyl)-5-fluoro-1,3-dihydro-2H-benzo[d]imidazole-2-one], on HDAC1, the IC50 is more than 10000 nM.
In the case of `O=c1n(Cc2ccc(-c3nnc(C(F)F)o3)cn2)c2cc(F)ccc2n1C1CCS(=O)(=O)CC1` [Compound 188, 3-((5-(5-(difluoromethyl)-1,3,4-oxadiazole-2-yl)pyridine-2-yl)methyl)-1-(1,1-dioxydotetrahydro-2H-thiopyran-4-yl)-5-fluoro-1,3-dihydro-2H-benzo[d]imidazole-2-one], the concentration for half-maximal inhibition (IC50) on HDAC1 is more than 10000 nM.
Same read-out and setting: next, `Cn1nccc1-c1cc2c(cc1F)n(Cc1ccc(-c3nnc(C(F)F)o3)cn1)c(=O)n2C` [Compound 226, 1-((5-(5-(difluoromethyl)-1,3,4-oxadiazole-2-yl)pyridine-2-yl)methyl)-6-fluoro-3-methy 1-5-(1-methyl-1H-pyrazole-5-yl)-1,3-dihydro-2H-benzo[d]imidazole-2-one]: more than 10000 nM; `CN1CCN(c2cc3c(cc2F)n(Cc2ccc(-c4nnc(C(F)F)o4)cn2)c(=O)n3C)CC1` [Compound 260, 1-((5-(5-(difluoromethyl)-1,3,4-oxadiazole-2-yl)pyridine-2-yl)methyl)-6-fluoro-3-methy 1-5-(4-methylpiperazine-1-yl)-1,3-dihydro-2H-benzo[d]imidazole-2-one]: more than 10000 nM.

(Values after patent publication US20230092890A1, “1, 3, 4-Oxadiazole derivative compounds as histone deacetylase 6 inhibitor, and the pharmaceutical composition comprising the same” (Chong Kun Dang Pharmaceutical Corp., priority 2019, published 2023).)
